Laboratory results published in US11351131B2, “Anti-inflammatory composition” (NEOPHARM CO., LTD., priority 2016, dated 2022).

What was measured:
[1] = system: human fibroblast (ATCC 2076); assay: Confirmation of cytotoxicity (MTT cell viability); assay type: cell-based; conditions: for Cell viability (%): human fibroblast, MTT
Method: The cell viability for human fibroblast (ATCC 2076) was measured using the anti-inflammatory composition prepared in the following Examples.
The human fibroblast (ATCC 2076) with a concentration of 5×10^4 cells/ml was inoculated into a 24-well culture plate of Iscove's Modified Dulbecco's Medium (IMDM, GIBCO) containing 10% bovine serum. […] Then, the supernatant was removed, the cells were washed with 200 μl of 5% phosphate buffered saline (PBS), 1.0 ml of MTT solution was added to each well, and after 4 hours, and the MTT was removed. Next, 1.0 ml of DMSO was added to each well, and incubation was performed overnight at 37° C. The absorbance at 570 nm was measured to determine the cell viability using Equation 1 below, and results thereof are shown in Table 1 below. Here, as a negative control group, a test group in which the active ingredient was not used was adopted. Cell viability (%)=(A570λ value/B570λ value)×100 [Equation 1]
A: Absorbance value at 570 nm of Example
B: Absorbance value at 570 nm of negative control group

[2] = system: IL-17A; assay: Anti-inflammatory effect: IL-17A expression in atopic dermatitis-induced 3D skin model (immunohistochemistry); assay type: cell-based; conditions: compared with the atopic dermatitis-induced skin model, 72 hours, quantified immunohistochemistry, read-out: IL-17A inhibitory effect
Method: (§1) In order to measure the anti-inflammatory efficacy, atopic dermatitis was induced with respect to IL-8 and IL-17A, which are inflammation-inducing cytokines, and expression amounts thereof were measured.
(§2) In order to induce atopic dermatitis, the 3D culture tissue (EpiDerm Full Thickness 400, sold by MatTek) media containing Poly (I:C), TNF-α, IL-4 and IL-13 were used, and treated for 72 hours with N-(2-hydroxyethyl)octanamide at a final concentration of 100 μM. Then, the 3D culture tissue was immobilized on formalin to make a paraffin block, and the degree of expression of inflammation-inducing cytokine was evaluated.
(§3) In FIG. 1, AD represents a skin model in which atopic dermatitis was induced, and the anti-inflammatory effect was evaluated based on the expression amounts of IL-8 and IL-17A.
(§4) Further, the inhibitory effect of each cytokine was quantified based on the results obtained through the immunohistochemistry obtained in FIG. 1, and shown in FIG. 2.

[3] = system: atopic dermatitis; assay: Atopic dermatitis improvement effect (EASI score); assay type: in vivo, human; conditions: 30 pediatric patients with atopic dermatitis, twice a day for 4 weeks
Method: In order to measure atopic dermatitis improvement effect, the anti-inflammatory compositions were prepared according to the following Examples. Here, the atopic dermatitis improvement effect was measured using an eczema area severity index (EASI) score. 30 pediatric patients with atopic dermatitis were treated twice a day for 4 weeks, and then effects on atopic symptoms were measured. Here, as a negative control group, a test group in which the active ingredient was not used was adopted.

[4] = system: IL-8; assay: Anti-inflammatory effect: IL-8 expression in atopic dermatitis-induced 3D skin model (immunohistochemistry); assay type: cell-based; conditions: compared with the atopic dermatitis-induced skin model, 72 hours, quantified immunohistochemistry, read-out: IL-8 inhibitory effect
Method: as §1, §2, §3, §4

CCCCCCCC(=O)NCCO [Example 1, N-(2-hydroxyethyl)octanamide]
Cytotoxicity ([1]; in the concentration range of the evaluation method): no cytotoxicity | Cell viability (%) ([1]; used amount 0.00064 μM): 100% | Cell viability (%) ([1]; used amount 0.0032 μM): 102% | Cell viability (%) ([1]; used amount 0.016 μM): 97% | Cell viability (%) ([1]; used amount 0.08 μM): 98% | Cell viability (%) ([1]; used amount 0.4 μM): 98% | Cell viability (%) ([1]; used amount 2 μM): 101% | Cell viability (%) ([1]; used amount 10 μM): 103% | Cell viability (%) ([1]; used amount 50 μM): 98% | Cell viability (%) ([1]; used amount 250 μM): 109% | inhibition at 100 µM [2]: ≥ 57.5% | Atopic dermatitis improvement effect (EASI score) [3]: significant numerical decrease | inhibition at 100 µM [4]: ≥ 48.6%
